Experimental data as given in the supplement of paper PMC13380429.
Where a name gives a salt, the structure may show the parent alone.

How the values were obtained:
Details in all cases: 72 h
U2OS [1] = test: cell viability relative to DMSO; higher = less toxic
Calu-3 [2] = test: as above
Caco-2 [3] = test: as above
HepG2 [4] = test: as above
Vero E6 [5] = test: as above
U2OS [6] = test: drug sensitivity score (DSS) for viability; higher = more toxic; extreme values may be limits of the assay
Calu-3 [7] = test: as above
Caco-2 [8] = test: as above
HepG2 [9] = test: as above
Vero E6 [10] = test: as above
U2OS [11] = test: relative viability EC50 (midpoint between 100% and the lowest measured viability); higher = less toxic
Calu-3 [12] = test: as above
Caco-2 [13] = test: as above
HepG2 [14] = test: as above
Vero E6 [15] = test: as above

Row | SMILES | cell viability (U2OS [1]; 1 nM) [%] | cell viability (U2OS [1]; 10 nM) [%] | cell viability (U2OS [1]; 100 nM) [%] | cell viability (U2OS [1]; 1000 nM) [%] | cell viability (U2OS [1]; 10000 nM) [%] | cell viability (Calu-3 [2]; 1 nM) [%] | cell viability (Calu-3 [2]; 10 nM) [%] | cell viability (Calu-3 [2]; 100 nM) [%] | cell viability (Calu-3 [2]; 1000 nM) [%] | cell viability (Calu-3 [2]; 10000 nM) [%] | cell viability (Caco-2 [3]; 1 nM) [%] | cell viability (Caco-2 [3]; 10 nM) [%] | cell viability (Caco-2 [3]; 100 nM) [%] | cell viability (Caco-2 [3]; 1000 nM) [%] | cell viability (Caco-2 [3]; 10000 nM) [%] | cell viability (HepG2 [4]; 1 nM) [%] | cell viability (HepG2 [4]; 10 nM) [%] | cell viability (HepG2 [4]; 100 nM) [%] | cell viability (HepG2 [4]; 1000 nM) [%] | cell viability (HepG2 [4]; 10000 nM) [%] | cell viability (Vero E6 [5]; 1 nM) [%] | cell viability (Vero E6 [5]; 10 nM) [%] | cell viability (Vero E6 [5]; 100 nM) [%] | cell viability (Vero E6 [5]; 1000 nM) [%] | cell viability (Vero E6 [5]; 10000 nM) [%] | drug sensitivity score (U2OS [6]) | drug sensitivity score (Calu-3 [7]) | drug sensitivity score (Caco-2 [8]) | drug sensitivity score (HepG2 [9]) | drug sensitivity score (Vero E6 [10]) | relative viability EC50 (U2OS [11]) [µM] | relative viability EC50 (Calu-3 [12]) [µM] | relative viability EC50 (Caco-2 [13]) [µM] | relative viability EC50 (HepG2 [14]) [µM] | relative viability EC50 (Vero E6 [15]) [µM]
1 | Cn1c(=O)c2c(ncn2CC(O)CO)n(C)c1=O (stereo not given) [dyphylline] | 107 | 108 | 105 | 98.8 | 110 | 92.7 | 99.6 | 109 | 96.4 | 101 | 104 | 110 | 104 | 98.9 | 107 | 102 | 106 | 97.1 | 107 | 104 | 100 | 102 | 105 | 98.7 | 105 | 0 | 0 | 0 | 0 | 0 | > 10 | > 10 | > 10 | > 10 | > 10
2 | Cc1ccc(Nc2c(F)cccc2Cl)c(CC(=O)O)c1 [lumiracoxib] | 94.1 | 98.7 | 94.8 | 103 | 105 | 93.7 | 93.9 | 90.8 | 98.9 | 104 | 93 | 97 | 95 | 100 | 107 | 97 | 103 | 109 | 106 | 118 | 95.4 | 94.8 | 105 | 100 | 100 | 0 | 0 | 0 | 0 | 0 | > 10 | > 10 | > 10 | > 10 | > 10
3 | Cn1nc(C(C)(C)C)cc1C(=O)N[C@@H](Cc1cccc(Cl)c1)C(=O)NCC#N [cathepsin-inhibitor-1] | 97.7 | 99.1 | 92.8 | 94.2 | 90.9 | 103 | 89.1 | 105 | 94.9 | 91.8 | 99.8 | 99.3 | 86.7 | 93.5 | 92.3 | 94 | 103 | 112 | 90.8 | 98.4 | 95 | 99.3 | 102 | 96.2 | 98.4 | 0 | 0 | 0 | 0 | 0 | > 10 | > 10 | > 10 | > 10 | > 10
4 | CC(C)CCC[C@@H](C)[C@H]1CC[C@H]2[C@@H]3CCC4=CC(=NO)CC[C@]4(C)[C@H]3CC[C@]12C [olesoxime] | 101 | 95.9 | 98 | 95.3 | 100 | 97.3 | 95.6 | 90.7 | 100 | 93.9 | 99.2 | 87.1 | 102 | 97.6 | 99.1 | 100 | 96.5 | 95.3 | 103 | 97.4 | 97.2 | 98.6 | 96.5 | 98.6 | 94.3 | 0 | 0 | 0 | 0 | 0 | > 10 | > 10 | > 10 | > 10 | > 10
5 | O=C(O)CC1CC(c2ccccc2)=NO1 (stereo not given) [VGX-1027] | 101 | 94.8 | 97.1 | 103 | 103 | 91.7 | 101 | 91.8 | 93.7 | 103 | 98.2 | 106 | 99.6 | 96.1 | 104 | 98.1 | 93.8 | 101 | 104 | 115 | 94.1 | 94.7 | 97.6 | 95 | 102 | 0 | 0 | 0 | 0 | 0 | > 10 | > 10 | > 10 | > 10 | > 10
6 | N#Cc1cc(F)cc(-c2nc(-c3ccc(F)cn3)no2)c1 [AZD9272] | 94.9 | 99 | 96.7 | 104 | 103 | 109 | 92.1 | 97.7 | 90.4 | 97.5 | 96.7 | 105 | 101 | 111 | 94.8 | 94.3 | 99.5 | 95.5 | 107 | 96.2 | 96.7 | 95.2 | 95.8 | 89.5 | 108 | 0 | 0 | 0 | 0 | 0 | > 10 | > 10 | > 10 | > 10 | > 10
7 | C[C@H]1COC2=C1C(=O)C(=O)c1c2ccc2c1CCCC2(C)C [cryptotanshinone] | 101 | 103 | 100 | 101 | 94.4 | 111 | 111 | 99.1 | 107 | 108 | 97.2 | 93 | 98.1 | 102 | 85.4 | 97.3 | 93.3 | 97.2 | 98.9 | 98 | 95 | 102 | 103 | 98.5 | 100 | 0 | 0 | 0.1 | 0 | 0 | > 10 | > 10 | > 10 | > 10 | > 10
8 | CO/N=C(\C(=O)N[C@@H]1C(=O)N2C(C(=O)O)=C(CSC(=O)c3ccco3)CS[C@H]12)c1csc(N)n1 [CEFTIOFUR HYDROCHLORIDE] | 104 | 95.6 | 100 | 97.4 | 104 | 96.3 | 110 | 99.4 | 104 | 102 | 99.9 | 97 | 90.6 | 95.4 | 99.3 | 106 | 98.5 | 92.4 | 103 | 103 | 92.5 | 107 | 93.9 | 96.9 | 106 | 0 | 0 | 0 | 0 | 0 | > 10 | > 10 | > 10 | > 10 | > 10
9 | O=C(OCCN1CCOCC1)c1cccnc1Nc1cccc(C(F)(F)F)c1 [morniflumate] | 96.5 | 104 | 97.8 | 97.8 | 97.3 | 91.9 | 97.1 | 102 | 106 | 108 | 120 | 103 | 99 | 102 | 80.1 | 90.8 | 93.8 | 87.3 | 94.7 | 88.4 | 107 | 100 | 102 | 105 | 99.3 | 0 | 0 | 0.5 | 0 | 0 | > 10 | > 10 | > 10 | > 10 | > 10
10 | COc1cc2c(=O)c(-c3ccc(O)cc3)coc2cc1O [glycitein] | 98.1 | 99.3 | 102 | 98.2 | 99.5 | 92.9 | 99.6 | 101 | 101 | 96.7 | 86.4 | 97.3 | 101 | 96 | 94.2 | 105 | 103 | 99.2 | 111 | 92.9 | 102 | 103 | 98.2 | 99.6 | 94.4 | 0 | 0 | 0 | 0 | 0 | > 10 | > 10 | > 10 | > 10 | > 10
11 | Oc1ccc(C2(c3ccccc3F)CCC(F)(F)CC2)cc1 [AC-186] | 95.1 | 96.3 | 95.5 | 99.3 | 99 | 91 | 98.4 | 89.3 | 105 | 104 | 104 | 95 | 98.2 | 96.2 | 102 | 95.8 | 94.7 | 100 | 96.3 | 104 | 97.4 | 96.5 | 94.2 | 92.2 | 109 | 0 | 0 | 0 | 0 | 0 | > 10 | > 10 | > 10 | > 10 | > 10
12 | COc1ccc(-c2ccc3cc(C(=O)O)ccc3c2)cc1C12CC3CC(CC(C3)C1)C2 [adapalene] | 94.5 | 98.2 | 94.6 | 99.4 | 98.4 | 98.6 | 101 | 101 | 101 | 86.2 | 95.3 | 99.6 | 97.6 | 99.4 | 93.3 | 102 | 96.9 | 109 | 104 | 112 | 98.1 | 94.6 | 95.4 | 93.3 | 115 | 0 | 0.1 | 0 | 0 | 0 | > 10 | > 10 | > 10 | > 10 | > 10
13 | C=CCN1CC[C@]23c4c5ccc(O)c4O[C@H]2C(=O)CC[C@@]3(O)[C@H]1C5 [NALOXONE HYDROCHLORIDE] | 103 | 99.7 | 102 | 103 | 100 | 94.5 | 94.4 | 88.5 | 91 | 99.6 | 98 | 94.7 | 101 | 100 | 104 | 106 | 97.9 | 102 | 95.9 | 103 | 99 | 103 | 104 | 95.9 | 100 | 0 | 0 | 0 | 0 | 0 | > 10 | > 10 | > 10 | > 10 | > 10
14 | Cc1ccc(-c2ncc[nH]2)cc1NC(=O)c1ccc(OCc2ccccn2)cc1 | 96.5 | 98 | 100 | 97.1 | 99.2 | 91 | 97.8 | 96.6 | 89.1 | 101 | 101 | 101 | 105 | 96.7 | 85.2 | 103 | 103 | 97.7 | 96 | 94.7 | 100 | 104 | 99.2 | 99.2 | 90 | 0 | 0 | 0.5 | 0 | 0 | > 10 | > 10 | > 10 | > 10 | > 10
